{"source": "patent US20100041672A1", "about": "“USE OF QUINOLINE DERIVATIVES IN THE TREATMENT OF PAIN AND IRRITABLE BOWEL SYNDROME” (GLAXO GROUP LIMITED, priority 2007, published 2010)", "key": {"male Sprague Dawley rats": {"test_system": "male Sprague Dawley rats", "assay": "rat intra rectal mustard oil model of visceral pain", "format": "in vivo", "conditions": "behaviours counted 25 minutes", "protocol": "All behavioural responses consistent with the presence of pain were determined following intra rectal injection of mustard oil in male Sprague Dawley rats. Typical behavioural responses consistent with the presence of pain following intra-colonic mustard oil injection include: arching, abdominal lifting, abdominal tensing, stretching, extending the rear leg (when lying down), raising and lowering the testicles, tip-toeing and writhing.\nMale Sprague Dawley rats (130 g-160 g) were briefly sedated with 50% oxygen/50% carbon dioxide and 0.2 ml of 3% mustard oil injected into the colorectum, 1.5 cm from the anus. The anus was plugged with vaseline and animals placed in observational cages to which they had previously been acclimatised for 45 minutes prior to mustard oil injection. The number of visceral pain related behaviours, which consisted primarily of abdominal arching, were counted over a 25 minute period and the animals culled by cervical dislocation.\nIn separate studies, the effects of alosetron (0.1, 0.3 and 1.0 mg/kg n=10 per group), gabapentin (10, 30 and 100 mg/kg n=10 per group) and amitriptyline (3, 10 and 30 mg/kg n=9-10 per group) or vehicle (saline for alosetron and amitriptyline 10% 1-Methyl-2-pyrolidone in saline for gabapentin n=10 per study) given sub cutaneously 15 minutes prior to injection of 3% mustard oil were examined on pain behaviour. Results in FIGS. 4, 5 and 6 are expressed as mean±sem percentage of behaviours compared to vehicle treated animals and were statistically compared to vehicle treated animals using a one way ANOVA with Dunnett's comparison, p<0.05 considered significant.\nThe effect of SB742457 (0.03, 0.1, 1.0, 3.0 and 10 mg/kg, n=10 per group for the 0.03, 0.1 and 10 mg/kg groups, and n=20 for the 1.0 and 3.0 mg/kg groups) or vehicle (saline n=20) given orally 60 minutes prior to injection of mustard oil (3% mustard oil, 70% ethanol in saline) were examined on pain behaviour. The total number of visceral pain related behaviours, which consisted primarily of abdominal arching, were counted over a 25 minute period and the animals culled by cervical dislocation. Behaviours were normalised as the percentage of the vehicle group mean and expressed as mean+/−sem. Data was combined from two studies and normalised as the percentage of the vehicle group mean for each individual study and expressed as mean+/−sem for both studies. Percentage of behaviours compared to vehicle treated animals were analysed statistically using a one way ANOVA with Dunnett's comparison, p<0.05 considered significant, FIG. 10.\nThe effect of SB792988A (0.03, 0.1, 0.3, 1.0, 3.0 and 10 mg/kg, n=9 for 1.0 mg/kg, n=10 per group for the 0.03, 0.1 and 3.0 mg/kg groups, n=20 per group for the 0.3 and 10 mg/kg groups) or vehicle (saline n=20) given orally 60 minutes prior to injection of mustard oil (3% mustard oil, 70% ethanol in saline) were examined on pain behaviour. The total number of visceral pain related behaviours, which consisted primarily of abdominal arching, were counted over a 25 minute period and the animals culled by cervical dislocation. Behaviours were normalised as the percentage of the vehicle group mean and expressed as mean+/−sem. Data was combined from two studies and normalised as the percentage of the vehicle group mean for each individual study and expressed as mean+/−sem for both studies. Percentage of behaviours compared to vehicle treated animals were analysed statistically using a one way ANOVA with Dunnett's comparison, p<0.05 considered significant, FIG. 11."}, "rats [1]": {"test_system": "rats", "assay": "Chronic Constriction Injury (CCI) model of neuropathic pain in rats (mechanical allodynia, Von Frey hairs)", "format": "in vivo, rat", "conditions": "30 mg/kg b.i.d. po", "protocol": "Under Isoflurane anaesthesia, the sciatic nerve in the left leg of the rat was exposed at mid thigh level and 4 loose ligatures of Chromic 4.0 gut tied around it. The wound was closed and secured with staples. The Sham operated animals underwent the same surgical technique except that the nerve was not ligated. […] The presence of mechanical (tactile) allodynia was assessed using the manual application of Von Frey hair monofilaments (Stoelting, Wood Dale, Ill., USA). Animals were placed in clear Perspex boxes on a raised perforated metallic platform, from below which the monofilaments were applied in ascending order to the plantar region of the hind paw (range: 1.4 g-26 g). Each hair was applied for approx. 3-5 seconds until a withdrawal response was observed. The lowest hair to give a withdrawal was recorded as the response after confirmation with reapplication of lower and/or higher hairs within the range tested.\nAll data are expressed as mean±s.e.m. Statistical analysis was carried out using Repeated Measures ANOVA (Statistica Version 6) to compare the vehicle treated groups with the drug treated groups (P<0.05 considered significant). Area Under Curve (AUC) calculations were performed within Excel and statistical analysis was carried out using a one-way ANOVA followed by Fischer LSD post-hoc test (Statistica Version 6) to compare the vehicle treated CCI and Sham groups with the drug treated groups (P<0.05 considered significant). Data recorded in Excel (Microsoft XP) and graphs produced in GraphPad Prism (Version 4).\nBy 8 days post-surgery neuropathy was beginning to develop as mechanical allodynia (assessed using mVFHs) was evident in all CCI operated groups compared to the Sham operated animals. This was maintained as a stable baseline until day 23 post-surgery (FIG. 12), when the animals were randomised and then chronically dosed with either SB742457 (10 mg/kg b.i.d. po), gabapentin (30 mg/kg b.i.d. po) or vehicle (1% methylcellulose; b.i.d. po) for 8 days (days 26-33 post-surgery). […] Three days after cessation of treatment the withdrawal thresholds of the drug treated groups had decreased back towards vehicle treated baseline levels."}, "Random Hooded rats": {"test_system": "Random Hooded rats", "assay": "rat joint pain model of chronic inflammatory pain (intra-articular FCA, hind paw weight bearing)", "format": "in vivo", "conditions": "for Statistics for hypersensitivity data (weight bearing), significance vs vehicle, Day 14: Day 14 post FCA; for Statistics for hypersensitivity data (weight bearing), significance vs vehicle, Day 15: Day 15 post FCA; for Statistics for hypersensitivity data (weight bearing), significance vs vehicle, Day 17: Day 17 post FCA", "protocol": "Random Hooded rats, 150-180 g, obtained from Charles River UK, were anaesthetised under gaseous anaesthetic and the area surrounding the left and right knee joint shaved and cleaned as for aseptic surgery. Animals were injected with 150 μl of FCA into the left knee joint (intra-articular injection). Animals were immediately allowed to recover from anaesthetic in a warmed/oxygenated environment until being returned to their home cage on paper bedding. No further post-op care was provided.\n(§1) Rats were tested prior to surgery and from 18 h post FCA (minimum of once weekly) for weight bearing (g) and joint diameter (mm). Weight bearing is measured by the animal's ability to place body weight across both hind paws on a Dual Channel Weight Averager which was calibrated each day prior to use using a 10 g weight (Rat capacitance tester—Linton Instruments). Hind paw weight bearing data was calculated and expressed as the percentage of the contralateral paw.\nAll data were expressed as mean±s.e.m.\n(§2) Prior to FCA intra-articular injection into the left knee, rats display even weight bearing. By day 1 post-insult weight bearing had shifted such that the majority of the body weight was transmitted through the contralateral limb. By day 10 this effect was maintained and at this point animals were randomised across treatment groups. Once daily dosing with vehicle, SB742457 or celecoxib began on day 13 and continued up to and including day 17.\nas §1, with “100” for “10”\nas §2, with “SB792988A” for “SB742457”, “17. […] AUC was calculated using Microsoft Excel.” for “17.”"}, "rats [2]": {"test_system": "rats", "assay": "FCA induced hypersensitivity rat model (intraplantar FCA, weight bearing)", "format": "in vivo", "conditions": "1 hour post dose; for weight bearing % reversal: 10 mg/kg p.o., 24 hrs after FCA", "protocol": "(§3) Naïve weight bearing readings were taken. The hypersensitivity to pain was measured using the Rat incapacitance tester (Linton instruments). All rats (180-220 g) received an intraplantar injection of 100 ul of FCA (Freund's complete adjuvant) into the left hind paw. The FCA was sonicated for 15 minutes prior to use. 24 hrs after administration of the FCA, pre-dose weight bearing readings were taken. All animals were then ranked and randomised for dosing according to their FCA window (predose difference in grams—naïve difference in grams). Rats with FCA window less than 30 were excluded from the study.\nAnimals were then dosed orally with either vehicle, SB42457 (0.01, 0.1, 1 and 10 mg/kg p.o.) or celecoxib (10 mg/kg p.o.) as appropriate according to ranking and randomisation. Animals were assessed in the weight bearing apparatus 1 hour post dose.\nThe study was blind and randomised by FCA window using the Latin square method. % reversals were calculated by using the naïve, pre-dose and post dose values as follows: % Reversal=[(Pre-dose−Post-dose)/(Pre-dose−Naïve)]×100.\nGraphs were plotted using Prism3. Statistical analysis was carried out using ANOVA and Fischer LSD test from statistical package Statistica 6.\nIn this study a positive control was also tested (celecoxib).\nas §3, with “(200-220” for “(180-220”\nAnimals were then dosed orally with vehicle, SB-792988-A (0.01, 0.1, 1 and 10 mg/kg p.o.), SB-399885-A (10 mg/kg p.o.) or celecoxib (10 mg/kg p.o.) as appropriate according to ranking and randomisation. Animals were assessed in the weight bearing apparatus 1 hour post dose.\nGraphs and were plotted using Prism3. Statistical analysis was carried out using ANOVA and Fischer LSD test from statistical package Statistica 6."}, "[3]": {"conditions": "10 mg/kg sub cutaneously 15 minutes prior to 3% mustard oil"}, "[4]": {"conditions": "30 mg/kg sub cutaneously 15 minutes prior to 3% mustard oil"}, "[5]": {"conditions": "30 mg/kg oral once daily from day 13, SB742457 study"}, "[6]": {"conditions": "30 mg/kg oral once daily from day 13, SB792988A study"}}, "data": [{"smiles": "Cc1[nH]cnc1CN1CCc2c(c3ccccc3n2C)C1=O", "note": "[alosetron, reference compound]", "values": [{"measurement": "reduction in behaviours compared to vehicle treated animals", "setting": "male Sprague Dawley rats; 0.1 mg/kg sub cutaneously 15 minutes prior to 3% mustard oil", "result": 56, "unit": "%"}, {"measurement": "reduction in behaviours compared to vehicle treated animals", "setting": "male Sprague Dawley rats; 0.3 mg/kg sub cutaneously 15 minutes prior to 3% mustard oil", "result": 56, "unit": "%"}, {"measurement": "reduction in behaviours compared to vehicle treated animals", "setting": "male Sprague Dawley rats; 1.0 mg/kg sub cutaneously 15 minutes prior to 3% mustard oil", "result": 54, "unit": "%"}]}, {"smiles": "NCC1(CC(=O)O)CCCCC1", "note": "[gabapentin, reference compound]", "values": [{"measurement": "reduction in behaviours compared to vehicle treated animals", "setting": "male Sprague Dawley rats; [3]", "result": 28, "unit": "%"}, {"measurement": "reduction in behaviours compared to vehicle treated animals", "setting": "male Sprague Dawley rats; [4]", "result": 50, "unit": "%"}, {"measurement": "reduction in behaviours compared to vehicle treated animals", "setting": "male Sprague Dawley rats; 100 mg/kg sub cutaneously 15 minutes prior to 3% mustard oil", "result": 69, "unit": "%"}, {"measurement": "reversal of mechanical allodynia after 5 days of dosing", "setting": "rats [1]; after 5 days of dosing", "result": "not significantly different to Sham levels"}, {"measurement": "reversal of mechanical allodynia after 8 days of dosing", "setting": "rats [1]; after 8 days of dosing", "result": "maximal reversal (P<0.001) back to Sham levels"}]}, {"smiles": "CN(C)CCC=C1c2ccccc2CCc2ccccc21", "note": "[amitriptyline, reference compound]", "values": [{"measurement": "reduction in behaviours compared to vehicle treated animals", "setting": "male Sprague Dawley rats; 3 mg/kg sub cutaneously 15 minutes prior to 3% mustard oil", "result": 43, "unit": "%"}, {"measurement": "reduction in behaviours compared to vehicle treated animals", "setting": "male Sprague Dawley rats; [3]", "result": 73, "unit": "%"}, {"measurement": "reduction in behaviours compared to vehicle treated animals", "setting": "male Sprague Dawley rats; [4]", "result": 91, "unit": "%"}]}, {"smiles": "Cc1ccc(-c2cc(C(F)(F)F)nn2-c2ccc(S(N)(=O)=O)cc2)cc1", "note": "[celecoxib, reference compound]", "values": [{"measurement": "Statistics for hypersensitivity data, significance vs vehicle, AUC", "setting": "Random Hooded rats; 30 mg/kg oral once daily days 13-17, AUC, SB742457 study", "result": "*** (*** = p < 0.001)"}, {"measurement": "Statistics for hypersensitivity data (weight bearing), significance vs vehicle, Day 13", "setting": "Random Hooded rats; 30 mg/kg oral once daily from day 13, Day 13 post FCA, SB742457 study", "result": "* (* = p < 0.05)"}, {"measurement": "Statistics for hypersensitivity data (weight bearing), significance vs vehicle, Day 14", "setting": "Random Hooded rats; [5]", "result": "*** (*** = p < 0.001)"}, {"measurement": "Statistics for hypersensitivity data (weight bearing), significance vs vehicle, Day 14", "setting": "Random Hooded rats; [6]", "result": "* (* = p < 0.05)"}, {"measurement": "Statistics for hypersensitivity data (weight bearing), significance vs vehicle, Day 15", "setting": "Random Hooded rats; [5]", "result": "*** (*** = p < 0.001)"}, {"measurement": "Statistics for hypersensitivity data (weight bearing), significance vs vehicle, Day 15", "setting": "Random Hooded rats; [6]", "result": "*** (*** = p < 0.001)"}, {"measurement": "Statistics for hypersensitivity data (weight bearing), significance vs vehicle, Day 16", "setting": "Random Hooded rats; 30 mg/kg oral once daily from day 13, Day 16 post FCA, SB792988A study", "result": "*** (*** = p < 0.001)"}, {"measurement": "Statistics for hypersensitivity data (weight bearing), significance vs vehicle, Day 17", "setting": "Random Hooded rats; [5]", "result": "*** (*** = p < 0.001)"}, {"measurement": "Statistics for hypersensitivity data (weight bearing), significance vs vehicle, Day 17", "setting": "Random Hooded rats; [6]", "result": "*** (*** = p < 0.001)"}, {"measurement": "weight bearing % reversal", "setting": "rats [2]; Table 5", "result": "74.81 ± 8.79", "unit": "%"}, {"measurement": "weight bearing % reversal", "setting": "rats [2]; Table 7", "result": "73.00 ± 6.01", "unit": "%"}]}, {"smiles": "COc1ccc(S(=O)(=O)Nc2cc(Cl)cc(Cl)c2OC)cc1N1CCNCC1.Cl", "note": "[SB399885A, N-(3,5-dichloro-2-methoxy-phenyl)-4-methoxy-3-piperazin-1-yl-benzenesulfonamide hydrochloride, reference compound]", "values": [{"measurement": "weight bearing % reversal", "setting": "rats [2]; Table 7", "result": "15.26 ± 5.70", "unit": "%"}, {"measurement": "effect on FCA induced hypersensitivity", "setting": "rats [2]; p.o., intraplantar FCA", "result": "no effect"}]}]}
